Data taken from patent US10711000B2 (Fronthera U.S. Pharmaceuticals LLC, priority 2018, dated 2020).
Like-named read-outs stand apart in the source and are kept apart here.

Target: T1, Autotaxin (Homo sapiens, UniProt Q13822)
T1 construct: from tissue; host or cells: pooled human plasma
Assay: LPA formation in pooled human plasma (ex vivo autotaxin inhibition)
Format: biochemical
Settings: 2 hours incubation
Method: Autotaxin is a plasma phosphodiesterase that converts lysophosphatidylcholine (LPC) into lysophosphatidic acid (LPA), therefore LPA formation was used to evaluate the potency of autotaxin inhibitors. The potency of compound was evaluated ex vivo in pooled human plasma.
Various concentrations of compound were incubated with plasma for 2 hours, and the LPA 18:2 and 20:4 concentration was measured by LC/MS/MS. To determine the LPA18:2 or 20:4 concentration in study plasma, a 10× calibration standard of LPA 18:2 or 20:4 were prepared by serial dilution in butyl alcohol: 20000, 10000, 5000, 2000, 1000, 500, 200, 100, 50, 20, and 10 ng/mL. 3 μL of calibration standard solution was added into 27.0 μL of blank plasma in 1.5-mL microcentrifuge tubes to generate 1× calibration standards. The 30.0 μL of standards or study plasma was added into 1.5-mL microcentrifuge tubes. 200 μL of butyl alcohol (containing 25.0 ng/mL LPA17:0 for internal control) was added into each 1.5-mL microcentrifuge tube containing study plasma or calibration standards. After vortexing for 1 minute and centrifuging at 10000 rpm for 10 min, 180 μL of supernatant was transferred into a 96-well plate and the LPA18:2 concentration in the plasma was quantitated using LC/MS/MS together with standards. Briefly, 8 μL of the solutions were injected for LC-MS/MS analysis using an ACQUITY UPLC BEH C18 column (2.1×50 mm, 1.7 μm) with mobile phase A [20 mM NH4OAC in water (0.1% FA)] and phase B [5 mM NH4OAC in water/0.2% FA in ACN=5:95]. Mass spectrometer parameters optimization for LPA18:2 were performed by Deprotonated molecular ion at m/z 433.2 ([M−H]^−) for LPA18:2, 457.2 for LPA20:4 and abundant product ion at m/z 152.8 for both LPA18:2 and LPA20:4 were obtained. Quantitative data were acquired in multiple reaction monitoring (MRM) negative electrospray ionization mode
The inhibition rate of LPA formation was determined by comparing the levels of LPA in treated and non-treated plasma. The data was plotted against the corresponding concentration of compound and the IC50 was calculated through non-linear regression fitting.

[1] = LPA 18:2 by LC/MS/MS, read-out: LPA formation (18:2) (IC50)
[2] = LPA 20:4 by LC/MS/MS, read-out: LPA formation (20:4) (IC50)

SMILES | IC50 [1] | IC50 [2]
CCc1nn2c(C)cc(N3CC4(CN(C(=O)[C@H](O)CO)C4)C3)cc2c1N(C)c1nc(-c2ccc(F)cc2)c(C#N)s1 (single isomer, unassigned) [Example 75] | 100 to 500 nM | 100 to 500 nM
CCc1nn2c(C)cc(N3CC4(CN(C(=O)[C@H]5COC[C@@H]5O)C4)C3)cc2c1N(C)c1nc(-c2ccc(F)cc2)c(C#N)s1 (stereo in doubt) [Example 59, 2-((2-ethyl-5-(6-(4-hydroxytetrahydrofuran-3-carbonyl)-2,6-diazaspiro[3.3]heptan-2-yl)-7-methylpyrazolo[1,5-a]pyridin-3-yl)(methyl)amino)-4-(4-fluorophenyl)thiazole-5-carbonitrile] | 100 to 500 nM | 100 to 500 nM
CCc1nn2c(C)cc(N3CC4(CN(C(=O)[C@@H]5COC[C@H]5O)C4)C3)cc2c1N(C)c1nc(-c2ccc(F)cc2)c(C#N)s1 (stereo in doubt) [Example 74, 2-((2-ethyl-5-(6-(4-hydroxytetrahydrofuran-3-carbonyl)-2,6-diazaspiro[3.3]heptan-2-yl)-7-methylpyrazolo[1,5-a]pyridin-3-yl)(methyl)amino)-4-(4-fluorophenyl)thiazole-5-carbonitrile] | 100 to 500 nM | 100 to 500 nM
CCn1nc2c(C)cc(N3CCN(CC(=O)N4CC(O)C4)CC3)cc2c1N(C)c1nc(-c2ccc(F)cc2)c(C#N)s1 [Compound 125, 2-((2-ethyl-5-(4-(2-(3-hydroxyazetidin-1-yl)-2-oxoethyl)piperazin-1-yl)-7-methyl-2H-indazol-3-yl)(methyl)amino)-4-(4-fluorophenyl)thiazole-5-carbonitrile] | 500 to 1000 nM | 500 to 1000 nM
CCc1nn2ccc(N3CCN(CC(=O)N(C)C)CC3)cc2c1N(C)c1nc(-c2ccc(F)cc2)c(C#N)s1 [Example 5, 2-(4-(3-((5-cyano-4-(4-fluorophenyl)thiazol-2-yl)(methyl)amino)-2-ethylpyrazolo[1,5-a]pyridin-5-yl)piperazin-1-yl)-N,N-dimethylacetamide] | ≤ 100 nM | ≤ 100 nM
CCc1nn2ccc(N3CCC4(CC3)CC(C(=O)N3CC(O)C3)C4)cc2c1N(C)c1nc(-c2ccc(F)cc2)c(C#N)s1 [Example 6, 2-[[2-ethyl-5-[2-(3-hydroxyazetidine-1-carbonyl)-7-azaspiro[3.5]nonan-7-yl]pyrazolo[1,5-a]pyridin-3-yl]-methyl-amino]-4-(4-fluorophenyl)thiazole-5-carbonitrile] | ≤ 100 nM | ≤ 100 nM
CCc1nn2ccc(N3CC4(CC4C(=O)N4CC(O)C4)C3)cc2c1N(C)c1nc(-c2ccc(F)cc2)c(C#N)s1 (stereo not shown) [Example 7, 2-((2-ethyl-5-(1-(3-hydroxyazetidine-1-carbonyl)-5-azaspiro[2.3]hexan-5-yl)pyrazolo[1,5-a]pyridin-3-yl)(methyl)amino)-4-(4-fluorophenyl)thiazole-5-carbonitrile] | 100 to 500 nM | 100 to 500 nM
CCc1nn2ccc(N3CC4(CC(C(=O)N5CC(O)C5)C4)C3)cc2c1N(C)c1nc(-c2ccc(F)cc2)c(C#N)s1 [Example 8, 2-[[2-ethyl-5-[6-(3-hydroxyazetidine-1-carbonyl)-2-azaspiro[3.3]heptan-2-yl]pyrazolo[1,5-a]pyridin-3-yl]-methyl-amino]-4-(4-fluorophenyl)thiazole-5-carbonitrile] | 100 to 500 nM | 100 to 500 nM

Results, then the compound that gave them:

IC50 [1] | IC50 [2] | SMILES
≤ 100 nM | 100 to 500 nM | CCc1nn2c(C)cc(N3CC4(CN(C(=O)[C@@H](O)CO)C4)C3)cc2c1N(C)c1nc(-c2ccc(F)cc2)c(C#N)s1 (single isomer, unassigned) [Example 76]
≤ 100 nM | ≤ 100 nM | CCn1nc2ncc(N3CCN(CC(=O)N4CC(O)C4)CC3)cc2c1N(C)c1nc(-c2ccc(F)cc2)c(C#N)s1 [Compound 115, 2-((2-ethyl-5-(4-(2-(3-hydroxyazetidin-1-yl)-2-oxoethyl)piperazin-1-yl)-2H-pyrazolo[3,4-b]pyridin-3-yl)(methyl)amino)-4-(4-fluorophenyl)thiazole-5-carbonitrile]
≤ 100 nM | ≤ 100 nM | CCn1nc2ncc(N3CC4(CN(C(=O)C5(O)CCOCC5)C4)C3)cc2c1N(C)c1nc(-c2ccc(F)cc2)c(C#N)s1 [Compound 116, 2-((2-ethyl-5-(6-(4-hydroxytetrahydro-2H-pyran-4-carbonyl)-2,6-diazaspiro[3.3]heptan-2-yl)-2H-pyrazolo[3,4-b]pyridin-3-yl)(methyl)amino)-4-(4-fluorophenyl)thiazole-5-carbonitrile]
≤ 100 nM | ≤ 100 nM | CCn1nc2nc(C)c(N3CC4(CN(C(=O)C(C)(C)O)C4)C3)cc2c1N(C)c1nc(-c2ccc(F)cc2)c(C#N)s1 [Compound 120, 2-((2-ethyl-5-(6-(2-hydroxy-2-methylpropanoyl)-2,6-diazaspiro[3.3]heptan-2-yl)-6-methyl-2H-pyrazolo[3,4-b]pyridin-3-yl)(methyl)amino)-4-(4-fluorophenyl)thiazole-5-carbonitrile]
≤ 100 nM | ≤ 100 nM | CCn1nc2nc(C)c(N3CC4(CN(C(=O)[C@H]5CCOC5)C4)C3)cc2c1N(C)c1nc(-c2ccc(F)cc2)c(C#N)s1 [Compound 121, (S)-2-((2-ethyl-6-methyl-5-(6-(tetrahydrofuran-3-carbonyl)-2,6-diazaspiro[3.3]heptan-2-yl)-2H-pyrazolo[3,4-b]pyridin-3-yl)(methyl)amino)-4-(4-fluorophenyl)thiazole-5-carbonitrile]
≤ 100 nM | ≤ 100 nM | CCc1nn2ccc(N3CCN(CC(=O)N4CC(O)C4)CC3)cc2c1N(C)c1nc(-c2ccc(F)cc2)c(C#N)s1 [Example 1, 2-((2-ethyl-5-(4-(2-(3-hydroxyazetidin-1-yl)-2-oxoethyl)piperazin-1-yl)pyrazolo[1,5-a]pyridin-3-yl)(methyl)amino)-4-(4-fluorophenyl)thiazole-5-carbonitrile]
≤ 100 nM | ≤ 100 nM | CCc1nn2ccc(N3CCN(CC(=O)N4CC[C@H](O)C4)CC3)cc2c1N(C)c1nc(-c2ccc(F)cc2)c(C#N)s1 [Example 2, (S)-2-((2-ethyl-5-(4-(2-(3-hydroxypyrrolidin-1-yl)-2-oxoethyl)piperazin-1-yl)pyrazolo[1,5-a]pyridin-3-yl)(methyl)amino)-4-(4-fluorophenyl)thiazole-5-carbonitrile]
≤ 100 nM | ≤ 100 nM | CCc1nn2ccc(N3CCN(CC(=O)N4CC[C@@H](O)C4)CC3)cc2c1N(C)c1nc(-c2ccc(F)cc2)c(C#N)s1 [Example 3, (R)-2-((2-ethyl-5-(4-(2-(3-hydroxypyrrolidin-1-yl)-2-oxoethyl)piperazin-1-yl)pyrazolo[1,5-a]pyridin-3-yl)(methyl)amino)-4-(4-fluorophenyl)thiazole-5-carbonitrile]
≤ 100 nM | ≤ 100 nM | CCc1nn2ccc(N3CCN(CC(=O)N4CC(CO)C4)CC3)cc2c1N(C)c1nc(-c2ccc(F)cc2)c(C#N)s1 [Example 4, 2-((2-ethyl-5-(4-(2-(3-(hydroxymethyl)azetidin-1-yl)-2-oxoethyl)piperazin-1-yl)pyrazolo[1,5-a]pyridin-3-yl)(methyl)amino)-4-(4-fluorophenyl)thiazole-5-carbonitrile]
